According to patent US12539269B2, “Composition for blocking ultraviolet rays and fine dust, and preparation method thereof” (SANG HWANG MI-IN CO., LTD, priority 2020, dated 2026):

Tested on: HaCaT
Assay: Hyaluronic acid production amount (ELISA kit) in BP-stimulated keratinocytes
Assay type: cell-based
Description: In order to confirm whether the extract of a black hoof mushroom, a shiitake mushroom, and an oyster mushroom increased the hyaluronic acid (HA) production amount in HaCaT which is a keratinocyte, measurement was performed with an ELISA kit, and the results are shown in Table 7. In Table 7, N (normal) is a BP (benzo[α]pyrene)-unstimulated group, and C (control) is a BP (benzo[α]pyrene)-stimulated group.

SMILES: O=C(O[C@@H]1Cc2c(O)cc(O)cc2O[C@@H]1c1cc(O)c(O)c(O)c1)c1cc(O)c(O)c(O)c1 [EGCG]
- Increase of hyaluronic acid production versus control group (increase rate) (10 μg/mL, versus control C 99.3 ng/mL): 6.3 ng/mL
- Hyaluronic acid production amount (BP (benzo[α]pyrene)-stimulated, EGCG 10 μg/mL, N 198, C 99.3): 105.6 ng/mL
